The values below are quoted from earlier work in patent US20170312254A1, “Low Dose Pharmaceutical Composition” (Cipla Limited, priority 2010, published 2017).

The conditions of data set [1]: premarketing studies.

Structures are written as SMILES.

With `O=C(O)c1ccc(-n2nc(-c3ccccc3O)nc2-c2ccccc2O)cc1` [Deferasirox, 4-[3,5-bis (2-hydroxyphenyl)-[1,2, 4]triazol-1-yl] enzoic acid], the Lipid solubility entry is “highly lipid-soluble” and the Water solubility entry is on record as “highly water insoluble”. The “Solubility in lower pH” value (lower pH) is “practically insoluble”. For the same compound, the “Solubility at pH 6.8” value (pH 6.8, until buffer strength is altered) is reported as “insoluble”. In addition, in data set [1], the “Elevations in liver transaminases, fraction of patients” value was “⅓”.
